Laboratory results: article PMC7316778 (Nature Communications, 2020)
Where two headings read alike, the source gives them in different places.

Assays:
Experiment in all cases: SelectScreen kinase assay
[1] = target: MAP3K11 (MLK3) (Homo sapiens, UniProt Q16584)
Description: (§1) Selectivity profiling assays were performed by the Invitrogen SelectScreen™ Services. […] The concentration of ATP was selected to be equal to the KM, unless indicated otherwise.

[2] = tested on: FLT3; conditions: IC50 on that kinase divided by IC50 on FES^S700C
Description: as §1

[3] = target: FLT3 (Homo sapiens, UniProt P36888)
Description: as §1

[4] = target: JAK2 (Homo sapiens, UniProt O60674); conditions: 1 μM WEL028, 1 h preincubation
Description: as §1

[5] = target: AKT2 (PKB beta) (Homo sapiens, UniProt P31751); conditions: for Inhibition at 1 µM (%): AKT2 (PKB beta), ZLYTE, ATP Km app
Chain of AKT2 (PKB beta) (P31751 whole entry): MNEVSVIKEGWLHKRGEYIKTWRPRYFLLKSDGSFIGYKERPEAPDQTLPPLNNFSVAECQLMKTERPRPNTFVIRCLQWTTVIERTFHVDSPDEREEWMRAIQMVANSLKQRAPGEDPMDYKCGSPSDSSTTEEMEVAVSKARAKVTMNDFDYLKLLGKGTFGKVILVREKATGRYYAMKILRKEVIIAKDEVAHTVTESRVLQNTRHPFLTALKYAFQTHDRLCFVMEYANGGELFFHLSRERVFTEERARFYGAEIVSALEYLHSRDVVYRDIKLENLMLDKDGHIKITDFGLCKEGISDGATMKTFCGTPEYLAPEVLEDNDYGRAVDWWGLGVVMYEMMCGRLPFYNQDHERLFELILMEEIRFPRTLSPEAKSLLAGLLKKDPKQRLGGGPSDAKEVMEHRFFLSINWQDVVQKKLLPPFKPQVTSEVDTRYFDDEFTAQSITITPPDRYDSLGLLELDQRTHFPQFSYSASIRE
Description: as §1

[6] = target: T1, AURKA (Aurora A) (Homo sapiens, UniProt O14965)
T1 sequence (O14965 1-403): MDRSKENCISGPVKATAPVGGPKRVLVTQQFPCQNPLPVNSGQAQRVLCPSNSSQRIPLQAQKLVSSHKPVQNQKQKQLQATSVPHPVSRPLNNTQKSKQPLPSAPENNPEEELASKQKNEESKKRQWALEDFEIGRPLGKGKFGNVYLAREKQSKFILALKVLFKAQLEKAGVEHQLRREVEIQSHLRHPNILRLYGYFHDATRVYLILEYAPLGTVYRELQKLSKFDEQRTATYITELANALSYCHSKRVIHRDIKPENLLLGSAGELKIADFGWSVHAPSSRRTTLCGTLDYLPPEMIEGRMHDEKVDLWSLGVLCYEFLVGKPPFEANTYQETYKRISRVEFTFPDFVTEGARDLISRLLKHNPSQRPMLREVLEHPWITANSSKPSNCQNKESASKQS
Description: as §1

[7] = target: EPHA1 (Homo sapiens, UniProt P21709)
Chain of EPHA1 (P21709 26-976): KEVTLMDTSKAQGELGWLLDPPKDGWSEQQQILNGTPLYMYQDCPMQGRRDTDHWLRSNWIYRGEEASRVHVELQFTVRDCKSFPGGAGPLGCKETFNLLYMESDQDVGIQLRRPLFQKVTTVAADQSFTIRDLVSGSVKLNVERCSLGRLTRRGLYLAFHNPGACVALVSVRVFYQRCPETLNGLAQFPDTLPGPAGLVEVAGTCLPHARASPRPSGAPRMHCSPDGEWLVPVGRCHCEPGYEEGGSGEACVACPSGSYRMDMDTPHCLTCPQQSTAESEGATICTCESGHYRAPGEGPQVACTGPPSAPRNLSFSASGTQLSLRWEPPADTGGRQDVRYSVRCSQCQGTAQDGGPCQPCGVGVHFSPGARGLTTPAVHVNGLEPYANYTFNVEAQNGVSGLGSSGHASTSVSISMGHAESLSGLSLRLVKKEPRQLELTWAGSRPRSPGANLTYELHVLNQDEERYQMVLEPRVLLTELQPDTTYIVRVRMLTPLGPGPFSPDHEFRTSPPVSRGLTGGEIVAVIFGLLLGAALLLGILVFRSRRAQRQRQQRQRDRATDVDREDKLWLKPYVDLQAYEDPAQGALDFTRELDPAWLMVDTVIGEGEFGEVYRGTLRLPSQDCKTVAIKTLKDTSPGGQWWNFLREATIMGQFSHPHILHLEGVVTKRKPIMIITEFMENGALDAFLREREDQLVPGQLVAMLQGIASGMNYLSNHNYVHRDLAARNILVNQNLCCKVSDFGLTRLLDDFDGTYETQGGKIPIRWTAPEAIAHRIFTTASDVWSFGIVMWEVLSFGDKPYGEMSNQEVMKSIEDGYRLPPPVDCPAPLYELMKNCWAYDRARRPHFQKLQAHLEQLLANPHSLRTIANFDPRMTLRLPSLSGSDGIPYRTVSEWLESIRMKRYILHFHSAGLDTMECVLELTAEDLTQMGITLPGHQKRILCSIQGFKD
Description: as §1

[8] = target: T2, GAK (Homo sapiens, UniProt O14976)
T2 sequence (O14976 1-1311): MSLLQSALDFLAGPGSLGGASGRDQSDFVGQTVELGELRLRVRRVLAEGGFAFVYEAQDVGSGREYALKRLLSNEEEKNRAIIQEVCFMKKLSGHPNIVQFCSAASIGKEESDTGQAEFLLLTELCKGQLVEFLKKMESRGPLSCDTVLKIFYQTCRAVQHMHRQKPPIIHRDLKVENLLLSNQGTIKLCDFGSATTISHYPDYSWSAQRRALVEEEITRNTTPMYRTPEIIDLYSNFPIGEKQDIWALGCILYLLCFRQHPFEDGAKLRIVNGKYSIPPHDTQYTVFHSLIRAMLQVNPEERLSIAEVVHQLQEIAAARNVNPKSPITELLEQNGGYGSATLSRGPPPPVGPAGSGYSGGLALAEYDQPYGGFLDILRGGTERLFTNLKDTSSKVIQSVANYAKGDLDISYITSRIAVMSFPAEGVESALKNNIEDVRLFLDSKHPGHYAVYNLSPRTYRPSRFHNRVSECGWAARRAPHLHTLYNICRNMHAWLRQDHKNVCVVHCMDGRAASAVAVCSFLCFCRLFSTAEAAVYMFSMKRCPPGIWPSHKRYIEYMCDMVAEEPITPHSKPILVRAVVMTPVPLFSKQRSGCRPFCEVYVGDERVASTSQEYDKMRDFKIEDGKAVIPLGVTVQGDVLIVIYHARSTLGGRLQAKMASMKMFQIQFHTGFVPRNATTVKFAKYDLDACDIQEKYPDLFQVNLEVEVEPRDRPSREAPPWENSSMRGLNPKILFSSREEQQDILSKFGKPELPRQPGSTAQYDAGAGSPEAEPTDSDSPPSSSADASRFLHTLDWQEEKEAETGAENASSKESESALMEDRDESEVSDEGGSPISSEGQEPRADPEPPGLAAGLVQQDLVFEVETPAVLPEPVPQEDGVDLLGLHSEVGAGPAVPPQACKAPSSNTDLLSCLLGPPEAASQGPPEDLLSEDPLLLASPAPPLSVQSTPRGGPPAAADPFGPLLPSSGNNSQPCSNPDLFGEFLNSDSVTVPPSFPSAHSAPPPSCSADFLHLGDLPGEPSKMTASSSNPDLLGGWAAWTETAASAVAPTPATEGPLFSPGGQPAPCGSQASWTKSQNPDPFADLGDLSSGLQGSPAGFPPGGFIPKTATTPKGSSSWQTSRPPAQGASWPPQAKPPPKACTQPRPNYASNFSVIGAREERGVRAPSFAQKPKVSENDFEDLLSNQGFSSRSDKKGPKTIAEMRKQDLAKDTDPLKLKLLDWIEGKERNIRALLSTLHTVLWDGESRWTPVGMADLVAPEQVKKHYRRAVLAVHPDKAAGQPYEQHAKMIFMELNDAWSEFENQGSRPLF
Description: as §1

[9] = target: MAPK8 (JNK1) (Homo sapiens, UniProt P45983)
Chain of MAPK8 (JNK1) (P45983 whole entry): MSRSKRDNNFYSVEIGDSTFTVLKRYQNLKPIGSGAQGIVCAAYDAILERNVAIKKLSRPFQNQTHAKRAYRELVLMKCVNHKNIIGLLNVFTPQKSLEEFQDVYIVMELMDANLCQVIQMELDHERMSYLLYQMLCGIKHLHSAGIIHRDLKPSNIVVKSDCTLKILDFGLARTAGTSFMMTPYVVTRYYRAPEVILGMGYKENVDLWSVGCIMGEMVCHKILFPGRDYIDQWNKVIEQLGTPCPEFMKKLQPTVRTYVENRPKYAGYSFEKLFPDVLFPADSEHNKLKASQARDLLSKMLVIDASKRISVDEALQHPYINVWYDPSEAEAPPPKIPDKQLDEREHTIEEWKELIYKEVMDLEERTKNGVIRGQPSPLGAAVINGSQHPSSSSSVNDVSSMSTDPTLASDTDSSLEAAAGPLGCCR
Description: as §1

[10] = target: CDK5 (Inactive) (Homo sapiens, UniProt Q00535)
Chain of CDK5 (Inactive) (Q00535 whole entry): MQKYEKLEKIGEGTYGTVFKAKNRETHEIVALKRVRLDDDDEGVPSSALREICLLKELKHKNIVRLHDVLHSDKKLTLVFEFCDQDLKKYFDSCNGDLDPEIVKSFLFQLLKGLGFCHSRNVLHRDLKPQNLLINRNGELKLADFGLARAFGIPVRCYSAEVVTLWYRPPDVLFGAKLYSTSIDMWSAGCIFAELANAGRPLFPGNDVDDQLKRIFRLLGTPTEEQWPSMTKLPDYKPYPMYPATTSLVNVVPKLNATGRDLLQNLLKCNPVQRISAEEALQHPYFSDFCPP
Description: as §1

[11] = 1 h, 1 μM WEL028, 1 h preincubation
[12] = IC50 on that kinase divided by IC50 on FES^S700C

Chain of FLT3 (Homo sapiens, UniProt P36888) (P36888 27-993, species assumed): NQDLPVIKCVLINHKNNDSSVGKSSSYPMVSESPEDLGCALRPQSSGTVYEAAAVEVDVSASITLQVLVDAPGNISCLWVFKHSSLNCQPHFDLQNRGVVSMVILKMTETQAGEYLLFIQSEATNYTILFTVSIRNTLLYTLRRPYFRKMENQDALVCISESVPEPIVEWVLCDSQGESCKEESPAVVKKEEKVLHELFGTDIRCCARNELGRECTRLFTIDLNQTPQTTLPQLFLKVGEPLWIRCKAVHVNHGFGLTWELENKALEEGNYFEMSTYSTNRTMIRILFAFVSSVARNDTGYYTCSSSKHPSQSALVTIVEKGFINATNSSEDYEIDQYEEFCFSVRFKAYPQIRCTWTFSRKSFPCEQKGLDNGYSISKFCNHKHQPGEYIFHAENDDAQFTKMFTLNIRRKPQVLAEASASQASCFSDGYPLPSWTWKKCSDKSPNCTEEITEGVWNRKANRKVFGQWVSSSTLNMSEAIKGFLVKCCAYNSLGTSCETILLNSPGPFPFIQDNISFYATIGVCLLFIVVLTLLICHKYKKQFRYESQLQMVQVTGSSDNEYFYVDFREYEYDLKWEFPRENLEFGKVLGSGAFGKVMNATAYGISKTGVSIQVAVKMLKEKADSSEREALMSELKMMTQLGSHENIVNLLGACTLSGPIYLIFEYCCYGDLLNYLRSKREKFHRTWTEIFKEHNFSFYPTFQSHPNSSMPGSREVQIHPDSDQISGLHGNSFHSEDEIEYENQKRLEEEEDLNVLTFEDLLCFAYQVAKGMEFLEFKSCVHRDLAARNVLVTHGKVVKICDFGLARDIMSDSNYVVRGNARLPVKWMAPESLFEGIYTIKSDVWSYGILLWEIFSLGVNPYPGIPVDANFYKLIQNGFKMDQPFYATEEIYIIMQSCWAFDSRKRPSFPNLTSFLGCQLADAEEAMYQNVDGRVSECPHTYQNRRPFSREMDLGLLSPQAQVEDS
Chain of MAP3K11 (MLK3) (Q16584 whole entry): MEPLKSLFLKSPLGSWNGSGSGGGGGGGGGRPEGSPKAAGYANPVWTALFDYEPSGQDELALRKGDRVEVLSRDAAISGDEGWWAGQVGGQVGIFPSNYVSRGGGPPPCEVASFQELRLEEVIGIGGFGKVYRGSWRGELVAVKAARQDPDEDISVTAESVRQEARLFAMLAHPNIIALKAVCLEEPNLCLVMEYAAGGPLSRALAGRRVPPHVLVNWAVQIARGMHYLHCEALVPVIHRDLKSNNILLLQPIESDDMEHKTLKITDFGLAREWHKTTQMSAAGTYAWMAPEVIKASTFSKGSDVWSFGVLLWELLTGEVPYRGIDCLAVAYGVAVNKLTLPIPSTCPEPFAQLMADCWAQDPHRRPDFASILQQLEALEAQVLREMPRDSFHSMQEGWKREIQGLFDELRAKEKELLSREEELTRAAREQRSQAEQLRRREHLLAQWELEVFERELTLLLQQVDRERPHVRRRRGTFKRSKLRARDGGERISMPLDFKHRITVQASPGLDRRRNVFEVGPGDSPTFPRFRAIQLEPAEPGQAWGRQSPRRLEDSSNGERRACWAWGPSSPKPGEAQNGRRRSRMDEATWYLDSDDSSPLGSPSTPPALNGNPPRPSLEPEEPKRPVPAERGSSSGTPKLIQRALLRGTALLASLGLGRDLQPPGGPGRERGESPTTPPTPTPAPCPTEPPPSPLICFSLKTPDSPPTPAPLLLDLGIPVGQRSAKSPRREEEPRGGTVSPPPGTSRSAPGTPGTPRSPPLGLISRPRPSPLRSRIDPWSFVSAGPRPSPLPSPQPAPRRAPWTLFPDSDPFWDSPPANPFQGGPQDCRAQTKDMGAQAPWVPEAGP

## C#CCOc1ccc(Nc2ncc(Cl)c(Nc3ccccc3NC(=O)C=C)n2)c(OC)c1 [Compound 6]
[1]; MAP3K11 (MLK3), LanthaScreen Binding, listed as WEL028, 1 µM
  Inhibition at 1 µM (%): 6%
[1]; read-out: Inhibition at 1 µM (%), MAP3K11 (MLK3), LanthaScreen Binding
  inhibition at 1 µM: 7%
[2]
  Apparent fold selectivity: 718 fold
[3]
  IC50: 3160 nM
[3]; [11]
  inhibition at 1 µM: 61%
[3]; FLT3, 1 µM, ZLYTE, ATP Km app, listed as WEL028, 1 µM
  Inhibition at 1 µM (%): 58%
[3]; read-out: Inhibition at 1 µM (%), FLT3, 1 µM, ZLYTE, ATP Km app
  inhibition at 1 µM: 64%
[4]
  Inhibition (%): 0%
[5]; [11]
  inhibition at 1 µM: -1%
[5]
  Inhibition at 1 µM (%): -2%
[5]; listed as WEL028, 1 µM
  Inhibition at 1 µM (%): 0%
[6]
  IC50: 631 nM
[6]; [11]
  inhibition at 1 µM: 74%
[6]; 1 h, log[inhibitor] (M) -5.00, ZLYTE, ATP Km app
  inhibition at 10 µM: 100%
[6]; 1 h, log[inhibitor] (M) -5.48, ZLYTE, ATP Km app
  inhibition at 3.31 µM: 90%
[6]; 1 h, log[inhibitor] (M) -5.95, ZLYTE, ATP Km app
  inhibition at 1.12 µM: 69%
[6]; 1 h, log[inhibitor] (M) -6.43, ZLYTE, ATP Km app
  inhibition at 0.372 µM: 46%
[6]; 1 h, log[inhibitor] (M) -6.91, ZLYTE, ATP Km app
  inhibition at 0.123 µM: 28%
[6]; 1 h, log[inhibitor] (M) -7.39, ZLYTE, ATP Km app
  inhibition at 0.04074 µM: 16%
[6]; 1 h, log[inhibitor] (M) -7.86, ZLYTE, ATP Km app
  inhibition at 0.0138 µM: 8%
[6]; 1 h, log[inhibitor] (M) -[…], ZLYTE, ATP Km app
  inhibition at 0.004571 µM: 3%
[6]; AURKA (Aurora A), 1 µM, ZLYTE, ATP Km app, listed as WEL028, 1 µM
  Inhibition at 1 µM (%): 70%
[6]; [12]
  Apparent fold selectivity: 155 fold
[6]; read-out: Inhibition at 1 µM (%), AURKA (Aurora A), 1 µM, ZLYTE, ATP Km app
  inhibition at 1 µM: 78%
[7]; 1 h
  inhibition at 1 µM: 5%
[7]; read-out: Inhibition at 1 µM (%)
  inhibition at 1 µM: 5%
[8]
  IC50: 12.6 nM
[8]; [11]
  inhibition at 1 µM: 108%
[8]; GAK, 1 µM, LanthaScreen Binding, listed as WEL028, 1 µM
  Inhibition at 1 µM (%): 109%
[8]; [12]
  Apparent fold selectivity: 3 fold
[8]; read-out: Inhibition at 1 µM (%), GAK, 1 µM, LanthaScreen Binding
  inhibition at 1 µM: 108%
[9]; 1 μM WEL028, 1 h preincubation
  Inhibition (%): 16%
[9]; MAPK8 (JNK1), 1 µM, ZLYTE, ATP 100, listed as WEL028, 1 µM
  Inhibition at 1 µM (%): 22%
[9]; read-out: Inhibition at 1 µM (%), MAPK8 (JNK1), 1 µM, ZLYTE, ATP 100
  inhibition at 1 µM: 11%
[10]; [11]
  inhibition at 1 µM: 3%
[10]; CDK5 (Inactive), 1 µM, LanthaScreen Binding, listed as WEL028, 1 µM
  Inhibition at 1 µM (%): 2%
[10]; read-out: Inhibition at 1 µM (%), CDK5 (Inactive), 1 µM, LanthaScreen Binding
  inhibition at 1 µM: 3%
